Reference: US12303545B2 (priority 2023, dated 2025)
≈ marks a conversion by molar mass, not a printed value. Where two headings read alike, the source gives them in different places. Numbered stars: 1 amine (or outer) side, 2 acyl side, 3 side chain; on linkers, the order of the positions; unused ones are H or OH. Bridge positions count the residues as written; N and C are the ends. Ends that are not written are not given here. Peptide text beside a SMILES is read from it. X1 = O=C(NC[*:1])NC[*:2]

Assays:
BCG bacteria [1] = experiment: microbe, parasite or virus in culture; settings: Mycobacterium tuberculosis variant bovis BCG
BCG = type: cell-based, attenuated Mycobacterium bovis; settings: treated as in Example 5
BCG bacteria [2] = test system: BCG bacteria
trypsin [3] = settings: trypsin 5 μg/mL
Description: (§1) A 4 mg/mL SAH1 solution and a 10 μg/mL trypsin solution each were prepared with PBS (pH 7.4) as a solvent. 250 μL of the trypsin solution was added to 250 μL of the SAH1 solution, and a reaction was conducted in an ice bath. A sample was collected at different time points after the reaction to determine the decomposition of SAH1 by RP-HPLC. RP-HPLC conditions were as follows: A C18 reversed-phase Bio-Rad analytical column was adopted: 250× 4 mm, a pore size: 30 nm, and a particle size: 7 μm. At 0 min to 40 min, linear gradient elution was conducted with 10% to 90% acetonitrile aqueous solutions, with 0.1% TFA (w/v) in both acetonitrile and water. A flow rate was 1.2 mL/min.
(§2) In addition, with the same method as above, the SAH1 aqueous solution was replaced with a 4 mg/mL BMAP-18 aqueous solution to detect the hydrolysis of BMAP-18 by trypsin.

in vitro = settings: mouse
Description: A positive control well was set. The positive control well was the same as test wells except that the polypeptide SAH1 aqueous solution was replaced with a DMEM complete medium. After the incubation, 10 μL of a CCK-8 reaction solution (Beijing Solarbio) was added to each well, and the plate was further incubated at 37° C. for 2 h. Finally, the absorbance at 450 nm was detected with a microplate reader (Synersymx, Biotek). An OD value of the positive control well was BO, an OD value of a test well in which an antimicrobial peptide was added was B, and B/BO was called an inhibition rate. […] With a concentration of an antimicrobial peptide as an x-coordinate and an inhibition rate as a y-coordinate, a line chart was plotted, and IC50 was obtained through fitting.

trypsin [4] = experiment: in vitro; settings: isolated enzyme trypsin, pH 7.4
Description: as §1, §2

| Compound | MIC (BCG bacteria [1]) | Peak area (RP-HPLC) (trypsin [3]; reaction time 0 min) | Polypeptide residue (trypsin [3]; reaction time 0 min) | Peak area (RP-HPLC) (trypsin [3]; reaction time 15 min) | Polypeptide residue (trypsin [3]; reaction time 15 min) | Peak area (RP-HPLC) (trypsin [3]; reaction time 30 min) | Polypeptide residue (trypsin [3]; reaction time 30 min) | IC50 at 24 h (in vitro) | remaining at 0.25 h, 2 mg/mL (trypsin [4]) | further results |
| --- | --- | --- | --- | --- | --- | --- | --- | --- | --- | --- |
| CC[C@@H](CO)NCCN[C@@H](CC)CO [Ethambutol] | 800 µM (≈ 163 µg/mL) |  |  |  |  |  |  |  |  |  |
| NNC(=O)c1ccncc1 [Isoniazid] | 800 µM (≈ 110 µg/mL) |  |  |  |  |  |  |  |  |  |
| CO[C@H]1/C=C/O[C@@]2(C)Oc3c(C)c(O)c4c(O)c(c(/C=N/N5CCN(C)CC5)c(O)c4c3C2=O)NC(=O)/C(C)=C\C=C\[C@H](C)[C@H](O)[C@@H](C)[C@@H](O)[C@@H](C)[C@H](OC(C)=O)[C@@H]1C [Rifampicin] | 400 µM (≈ 329 µg/mL) |  |  |  |  |  |  |  |  |  |
| CC(C)CC(NC(=O)C(CCCCN)NC(=O)C(CCCCN)NC(=O)C(Cc1ccccc1)NC(=O)C(CC(C)C)NC(=O)C(CCCCN)NC(=O)C(CCCCN)NC(=O)C(Cc1ccccc1)NC(=O)C(CCCCN)NC(=O)C1CSCNC(=O)NCSCC(NC(=O)C(Cc2ccccc2)NC(=O)C(CCCNC(=N)N)NC(=O)CN)C(=O)NC(CCCNC(=N)N)C(=O)NC(Cc2ccccc2)C(=O)NC(CCCNC(=N)N)C(=O)N1)C(=O)NC(CO)C(=O)O (stereo not drawn) [SAH1] (H-GRFCRFRCKFKKLFKKLS-OH; linker 4-8 via X1; configuration not given here) |  | 274.44 | 100% | 185.49 | 67.59% | 125.94 | 45.89% | 300 µM | 67.6% | impact on cell membrane and intracellular structure of BCG (TEM) (BCG): largely missed, resulting in cavities and bacterial death; MIC (BCG bacteria [2]; BCG bacteria, 37° C. for 7 d, then resazurin 2 d, 7H9 medium): 12.5 µM (≈ 29.7 µg/mL); Peak area (RP-HPLC) (trypsin [3]; reaction time 60 min): 82.92; Polypeptide residue (trypsin [3]; reaction time 60 min): 30.21%; remaining at 1 h, 2 mg/mL (trypsin [4]): 30.2% |
| GRFKRFRKKFKKLFKKLS-OH [BMAP-18, G-R-F-K-R-F-R-K-K-F-K-K-L-F-K-K-L-S-OH] |  | 254.43 | 100% | 45.20 | 17.76% | 0.02 | almost completely hydrolyzed | 150 µM | 17.8% | MIC (BCG bacteria [2]): 300 µM; antibacterial ability relative to SAH1 (BCG bacteria [2]): one twenty-fourth; remaining at 0.5 h, 2 mg/mL (trypsin [4]): 0.01% |
